{"source": "patent US6136815A", "about": "“Antiviral 2,4-pyrimidinedione derivatives and process for the preparation thereof” (Korea Research Inst. of Chem. Tech., priority 1996, dated 2000)", "key": {"[1]": {"system": "HIV-1", "test": "in vitro anti-HIV-1 assay: inhibition of the virus-induced cytopathic effect in MT-4 cells (MTT)", "assay_type": "cell-based", "details": "for S. I. (CD50 /ED50): Selectivity index = (CD50 /ED50)", "protocol": "The in vitro anti-HIV-1 assays were based on the inhibition of the virus-induced cytopathic effect in MT-4 cells as described in J. Med. Chem, 34, 349 (1991).\nFirst, MT-4 cells were suspended in a culture medium at a concentration of 1×10^4 cells/ml and infected with 500 TCID50 (50% cell culture infective dose)/well of HIV-1. Immediately after the virus infection, 100 μl of the cell suspension was brought into each well of a flat-bottomed microtiter tray containing various concentrations of the test compounds(1) to (21). After incubating for 4 or 5 days at 37° C., the number of viable cells was determined by the 3-(4,5-dimethylthiazol-2-yl)-2,5-diphenyltetrazolium bromide (MTT) method, as disclosed in J. Virol. Methods, 20, 309 (1988)."}, "[2]": {"test": "cytotoxicity: viability of mock-infected host (MT-4) cells (MTT)", "assay_type": "cell-based", "details": "human, Cytotoxic concentration that causes death of MT4 cells by 50%, MTT method, read-out: CD50 (the source's name)", "protocol": "The cytotoxicity of the compounds of the present invention was assessed in parallel with their antiviral activity. It was based on the viability of mock-infected host cells as determined by the MTT methods (see J. Virol. Methods, 20, 309 (1988)). AZT was employed as a comparative compound."}, "[3]": {"details": "Human immunodeficiency virus 1, MT4, Effective concentration for the inhibition of the proliferation of HIV by 50%, HIV-1-infected MT-4 cells, 4 or 5 days at 37° C., MTT method, read-out: ED50 (the source's name)"}, "[4]": {"details": "Human immunodeficiency virus 1, MT4, read-out: ED50"}}, "note": "Read-outs that look alike come from different tables or passages of the source."}
{"smiles": "Cc1cc(C)cc(Oc2c(C(C)C)c(=O)[nH]c(=O)n2COCCO)c1", "note": "[Compound 11, 1-(2'-hydroxyethoxymethyl)-5-isopropyl-6-(3',5'-dimethylphenoxy)-2,4-pyrimidinedione]", "values": [{"measurement": "EC50", "setting": "[1]; [3]", "result": 0.0107, "unit": "µg/mL"}, {"measurement": "CC50", "setting": "[2]", "result": 129, "unit": "µg/mL"}]}
{"smiles": "CCc1c(C(=O)c2cc(C)cc(C)c2)n(COCc2ccccc2)c(=O)[nH]c1=O", "note": "[Compound 17, 1-benzyloxymethyl-5-ethyl-6-(3',5'-dimethylbenzoyl)-2,4-pyrimidinedione]", "values": [{"measurement": "EC50", "setting": "[1]; [4]", "result": "< 0.001", "unit": "µg/mL"}, {"measurement": "S. I. (CD50 /ED50)", "setting": "[1]", "result": "> 10,550"}, {"measurement": "CC50", "setting": "[2]", "result": 1.05, "unit": "µg/mL"}]}
{"smiles": "CCc1c(Oc2cc(C)cc(C)c2)n(COCCOC(C)=O)c(=O)[nH]c1=O", "note": "[Compound 8, 1-(2'-acetoxyethoxymethyl)-5-ethyl-6-(3',5'-dimethylphenoxy)-2,4-pyrimidinedione]", "values": [{"measurement": "EC50", "setting": "[1]; [3]", "result": "< 0.00256", "unit": "µg/mL"}, {"measurement": "S. I. (CD50 /ED50)", "setting": "[1]", "result": "> 3,718"}, {"measurement": "CC50", "setting": "[2]", "result": 9.52, "unit": "µg/mL"}]}
{"smiles": "CCOCn1c(Oc2ccccc2)c(CC)c(=O)[nH]c1=O", "note": "[Compound 3, 1-ethoxymethyl-5-ethyl-6-phenoxy-2,4-pyrimidinedione]", "values": [{"measurement": "EC50", "setting": "[1]; [3]", "result": "< 0.001", "unit": "µg/mL"}, {"measurement": "S. I. (CD50 /ED50)", "setting": "[1]", "result": "> 16,630"}, {"measurement": "CC50", "setting": "[2]", "result": 16.6, "unit": "µg/mL"}]}
{"smiles": "CCc1c(Oc2cc(C)cc(C)c2)n(COCCO)c(=O)[nH]c1=O", "note": "[Compound 9]", "values": [{"measurement": "EC50", "setting": "[1]; [3]", "result": 0.992, "unit": "µg/mL"}, {"measurement": "CC50", "setting": "[2]", "result": 35.1, "unit": "µg/mL"}]}
{"smiles": "CCOCn1c(C(=O)c2ccccc2)c(CC)c(=O)[nH]c1=O", "note": "[Compound 15, 1-ethoxymethyl-5-ethyl-6-benzoyl-2,4-pyrimidinedione]", "values": [{"measurement": "EC50", "setting": "[1]; [3]", "result": 0.043, "unit": "µg/mL"}, {"measurement": "CC50", "setting": "[2]", "result": 103, "unit": "µg/mL"}]}
{"smiles": "Cc1cn([C@H]2C[C@H](N=[N+]=[N-])[C@@H](CO)O2)c(=O)[nH]c1=O", "note": "[AZT, 3'-azido-3'-deoxythymidine, reference compound]", "values": [{"measurement": "EC50", "setting": "[1]; [4]", "result": 0.00116, "unit": "µg/mL"}, {"measurement": "CC50", "setting": "[2]", "result": 0.558, "unit": "µg/mL"}]}
{"smiles": "CC(=O)OCCOCn1c(Oc2cc(C)cc(C)c2)c(C(C)C)c(=O)[nH]c1=O", "note": "[Compound 10, 1-(2'-acetoxyethoxymethyl)-5-isopropyl-6-(3',5'-dimethylphenoxy)-2,4-pyrimidinedione]", "values": [{"measurement": "EC50", "setting": "[1]; [3]", "result": 0.00351, "unit": "µg/mL"}, {"measurement": "CC50", "setting": "[2]", "result": 119, "unit": "µg/mL"}]}
{"smiles": "CCOCn1c(Oc2cc(C)cc(C)c2)c(CC)c(=O)[nH]c1=O", "note": "[Compound 1, 1-ethoxymethyl-5-ethyl-6-(3',5'-dimethylphenoxy)-2,4-pyrimidinedione]", "values": [{"measurement": "EC50", "setting": "[1]; [3]", "result": "< 0.001", "unit": "µg/mL"}, {"measurement": "S. I. (CD50 /ED50)", "setting": "[1]", "result": "> 84,680"}, {"measurement": "CC50", "setting": "[2]", "result": 84.7, "unit": "µg/mL"}]}
{"smiles": "CCOCn1c(C(=O)c2ccccc2)c(C(C)C)c(=O)[nH]c1=O", "note": "[Compound 16, 1-ethoxymethyl-5-isopropyl-6-benzoyl-2,4-pyrimidinedione]", "values": [{"measurement": "EC50", "setting": "[1]; [3]", "result": 0.0116, "unit": "µg/mL"}, {"measurement": "CC50", "setting": "[2]", "result": 88.7, "unit": "µg/mL"}]}
{"smiles": "CCOCn1c(C(=O)c2cc(C)cc(C)c2)c(CC)c(=O)[nH]c1=O", "note": "[Compound 13, 1-ethoxymethyl-5-ethyl-6-(3',5'-dimethylbenzoyl)-2,4-pyrimidinedione]", "values": [{"measurement": "EC50", "setting": "[1]; [3]", "result": "< 0.001", "unit": "µg/mL"}, {"measurement": "S. I. (CD50 /ED50)", "setting": "[1]", "result": "> 5,860"}, {"measurement": "CC50", "setting": "[2]", "result": 5.86, "unit": "µg/mL"}]}
{"smiles": "COCCOCn1c(Oc2cc(C)cc(C)c2)c(C(C)C)c(=O)[nH]c1=O", "note": "[Compound 12, 1-(2'-methoxyethoxymethyl)-5-isopropyl-6-(3',5'-dimethylphenoxy)-2,4-pyrimidinedione]", "values": [{"measurement": "EC50", "setting": "[1]; [3]", "result": 0.0106, "unit": "µg/mL"}, {"measurement": "CC50", "setting": "[2]", "result": 126, "unit": "µg/mL"}]}
{"smiles": "COCCOCn1c(C(=O)c2cc(C)cc(C)c2)c(C(C)C)c(=O)[nH]c1=O", "note": "[Compound 21, 1-(2'-methoxyethoxymethyl)-5-isopropyl-6-(3',5'-dimethylbenzoyl)-2,4-pyrimidinedione]", "values": [{"measurement": "EC50", "setting": "[1]; [3]", "result": 0.0119, "unit": "µg/mL"}, {"measurement": "CC50", "setting": "[2]", "result": 121, "unit": "µg/mL"}]}
{"smiles": "CCOCn1c(C(=O)c2cc(C)cc(C)c2)c(C(C)C)c(=O)[nH]c1=O", "note": "[Compound 14, 1-ethoxymethyl-5-isopropyl-6-(3',5'-dimethylbenzoyl)-2,4-pyrimidinedione]", "values": [{"measurement": "EC50", "setting": "[1]; [3]", "result": "< 0.001", "unit": "µg/mL"}, {"measurement": "S. I. (CD50 /ED50)", "setting": "[1]", "result": "> 15,330"}, {"measurement": "CC50", "setting": "[2]", "result": 15.3, "unit": "µg/mL"}]}
{"smiles": "CCOCn1c(Oc2cc(C)cc(C)c2)c(C(C)C)c(=O)[nH]c1=O", "note": "[Compound 2, 1-ethoxymethyl-5-isopropyl-6-(3',5'-dimethylphenoxy)-2,4-pyrimidinedione]", "values": [{"measurement": "EC50", "setting": "[1]; [3]", "result": "< 0.00256", "unit": "µg/mL"}, {"measurement": "S. I. (CD50 /ED50)", "setting": "[1]", "result": "> 8,425"}, {"measurement": "CC50", "setting": "[2]", "result": 21.6, "unit": "µg/mL"}]}
{"smiles": "CC(C)c1c(C(=O)c2ccccc2)n(COCc2ccccc2)c(=O)[nH]c1=O", "note": "[Compound 19, 1-benzyloxymethyl-5-isopropyl-6-benzoyl-2,4-pyrimidinedione]", "values": [{"measurement": "EC50", "setting": "[1]; [4]", "result": "< 0.01", "unit": "µg/mL"}, {"measurement": "S. I. (CD50 /ED50)", "setting": "[1]", "result": "> 15,450"}, {"measurement": "CC50", "setting": "[2]", "result": 15.4, "unit": "µg/mL"}]}
{"smiles": "Cc1cc(C)cc(Oc2c(C(C)C)c(=O)[nH]c(=O)n2COCc2ccccc2)c1", "note": "[Compound 6, 1-benzyloxymethyl-5-isopropyl-6-(3',5'-dimethylphenoxy)-2,4-pyrimidinedione]", "values": [{"measurement": "EC50", "setting": "[1]; [3]", "result": "< 0.00256", "unit": "µg/mL"}, {"measurement": "S. I. (CD50 /ED50)", "setting": "[1]", "result": "> 5,246"}, {"measurement": "CC50", "setting": "[2]", "result": 13.4, "unit": "µg/mL"}]}
{"smiles": "CCc1c(Oc2cc(C)cc(C)c2)n(COCc2ccccc2)c(=O)[nH]c1=O", "note": "[Compound 5, 1-benzyloxymethyl-5-ethyl-6-(3',5'-dimethylphenoxy)-2,4-pyrimidinedione]", "values": [{"measurement": "EC50", "setting": "[1]; [3]", "result": "< 0.00256", "unit": "µg/mL"}, {"measurement": "S. I. (CD50 /ED50)", "setting": "[1]", "result": "> 11,585"}, {"measurement": "CC50", "setting": "[2]", "result": 29.7, "unit": "µg/mL"}]}
{"smiles": "CC(C)c1c(Oc2ccccc2)n(COCc2ccccc2)c(=O)[nH]c1=O", "note": "[Compound 7, 1-benzyloxymethyl-5-isopropyl-6-phenoxy-2,4-pyrimidinedione]", "values": [{"measurement": "EC50", "setting": "[1]; [3]", "result": "< 0.001", "unit": "µg/mL"}, {"measurement": "S. I. (CD50 /ED50)", "setting": "[1]", "result": "> 10,210"}, {"measurement": "CC50", "setting": "[2]", "result": 10.2, "unit": "µg/mL"}]}
{"smiles": "CCOCn1c(Oc2ccccc2)c(C(C)C)c(=O)[nH]c1=O", "note": "[Compound 4, 1-ethoxymethyl-5-isopropyl-6-phenoxy-2,4-pyrimidinedione]", "values": [{"measurement": "EC50", "setting": "[1]; [4]", "result": 0.018, "unit": "µg/mL"}, {"measurement": "S. I. (CD50 /ED50)", "setting": "[1]", "result": "> 5,111"}, {"measurement": "CC50", "setting": "[2]", "result": 92, "unit": "µg/mL"}]}
{"smiles": "Cc1cc(C)cc(C(=O)c2c(C(C)C)c(=O)[nH]c(=O)n2COCCO)c1", "note": "[Compound 20]", "values": [{"measurement": "EC50", "setting": "[1]; [3]", "result": 0.00367, "unit": "µg/mL"}, {"measurement": "CC50", "setting": "[2]", "result": 51.7, "unit": "µg/mL"}]}
{"smiles": "Cc1cc(C)cc(C(=O)c2c(C(C)C)c(=O)[nH]c(=O)n2COCc2ccccc2)c1", "note": "[Compound 18, 1-benzyloxymethyl-5-isopropyl-6-(3',5 '-dimethylbenzoyl)-2,4-pyrimidinedione]", "values": [{"measurement": "EC50", "setting": "[1]; [3]", "result": "< 0.001", "unit": "µg/mL"}, {"measurement": "S. I. (CD50 /ED50)", "setting": "[1]", "result": "> 11,920"}, {"measurement": "CC50", "setting": "[2]", "result": 11.9, "unit": "µg/mL"}]}
